Where two headings read alike, the source gives them in different places.

The text below walks through data of US8940271B2, “Transmucosal administration of drug compositions for treating and preventing disorders in animals” (Abbott Laboratories, priority 2005, dated 2015).

The conditions of data set [1]: cited from earlier work.
A short description of data set [2]: Stability of meloxicam with various solubilizing agents. Format: physicochemical. Particulars: storage with PVA, Polysorbate 80 or glycerin.
The nature of data set [3]: Canine anesthetized meloxicam absorption study. Particulars: TMOM.
Procedure: A canine anesthetized absorption study was also carried out. The subjects were anesthetized dogs using minimal pre-anesthetics (isoflurane via an endotracheal tube). The possibility of run off into and absorption by the gastrointestinal tract was prevented by obstructing the esophagus with a Foley catheter. […] Blood samples were taken 0, 5, 30 min, and 1, 2, 4, 8, 12, 24, and 72 hours post-dose. Jugular and cephalic vein samples were obtained 5, 30 min and 4, 8 hours post-dose.
A short description of data set [4]: pH dependence of dissolution/precipitation of 1% meloxicam. The data set is classed as physicochemical. Particulars: 95:5 water:propylene glycol, concentrated NaOH solution (10 M) added.
Data set [5] is described as follows: Canine meloxicam absorption study (TMOM vs oral suspension). Particulars: ~0.2 mg/kg, dogs.
Procedure: The average oral suspension dose was 0.20 mg/kg (range 0.19-0.21 mg/kg), and the average dose using transmucosal oral administration was 0.20 mg/kg (range 0.19-0.21 mg/kg). Blood samples were obtained at 0, 5, 30 minutes and 1, 2, 4, 8, 12, 24, 48, and 72 hours post dose.
The AUC represents the area under the curve or the total amount of drug exposure to the animal following administration by the two different dosage forms. […] Absorption half-life is the amount of time it takes for half of what is left at the site of absorption to be absorbed.
Data set [6] is described as follows: pH dependence of dissolution/precipitation of 1% meloxicam. Format: physicochemical. The procedure:
NaOH solution (1 M) was added to the mixture to provide a pH of 10. […] Each solution was then titrated with HCl (aq). […] Similarly, for the 85:15 water:ethanol solvent system, a precipitate formed when the initial apparent pH of 12 was reduced to 7.7 (by addition of HCl).

A short description of data set [7]: Canine carprofen study (caplet, TMOM, subcutaneous injection). Particulars: dogs. Format: in vivo, dog.
Data set [8] can be described thus: Canine anesthetized carprofen absorption study. Format: in vivo, dog. As to conditions: TMOM. The procedure: A canine anesthetized absorption study was also carried out. […] The carprofen was administered using a transmucosal oral mist. Blood samples were taken 0, 5, 15, 30 min, and 1, 2, 4, 8, 12, and 24 hours post-dose. Jugular and cephalic vein samples were obtained 5, 15 and 30 and 1 and 2 hours post-dose. The target dosage was 2.2 mg/kg (50 mg/mL Rimadyl® injectable solution, 300 μL (15 mg), target dose range 1.9-2.5 mg/kg).

Data set [9] can be described thus: Clemastine two-way crossover, tablets (stomach tube) vs TMOM, equine.
Procedure: (§2) The target dose for canine subjects was 1 mg/kg (both transmucosal oral administration and tablets). The average tablet dose was 0.96 mg/kg (0.95-0.97 mg/kg) and the average transmucosal oral administration dose was 0.97 mg/kg (0.91-1.06 mg/kg) administered in a spray volume of 400-650 μL using 4-7 pumps of the spray device. The target dose for feline subjects was also 1 mg/kg for both transmucosal oral administration and tablets. The average tablet dose of 1.07 mg/kg (0.89-1.22 mg/kg) and the average transmucosal oral administration dose was 0.95 mg/kg (0.83-1.14 mg/kg) administered in a spray volume of 100-200 μL using 1-2 pumps of the spray device. The target dose for equine subjects was 0.1 mg/kg for both transmucosal oral administration and tablets. The average tablet dose (via stomach tube) was 0.1 mg/kg (0.10-0.11 mg/kg) and the average transmucosal oral administration dose was 0.1 mg/kg (0.09-0.11 mg/kg) administered in a spray volume of 1.4-1.7 mL using 14-17 pumps of the spray device.
(§3) Blood samples were taken 5, 15, 30 min, 1, 2, 4, 7, 12, 24 hours post dose.
A short description of data set [10]: Clemastine two-way crossover, tablets vs TMOM, canine.
Procedure: as §2, §3
For data set [11] the following is noted: equine, oral gavage; Törneke et al. 2003; cited from earlier work.
A short description of data set [12]: Canine anesthetized clemastine absorption study. The data set is classed as in vivo, dog. As to conditions: anesthetized canine subjects, TMOM. The procedure:
A canine anesthetized absorption study was also carried out.

The nature of data set [13]: in vivo. As to conditions: dog, plasma, po, 1 mg/kg.
Procedure: as §2, §3
The nature of data set [14]: in vivo. As to conditions: horse, plasma, po, 0.1 mg/kg.
Procedure: as §2, §3
Data set [15] can be described thus: Enrofloxacin feline study, tablets vs TMOM. The data set is classed as in vivo, cat. Particulars: cats. The procedure: A six cat, two-way crossover study was carried out to compare conventional oral administration (i.e., tablets, Baytril®) with transmucosal oral administration (Baytril® 100; 100 mg of enrofloxacin, L-arginine base 200 mg, n-butyl alcohol 30 mg, benzyl alcohol (as a preservative) 20 mg, and water for injection, q.s.). The target was 5 mg/kg enrofloxacin. The average tablet dose was 4.7 mg/kg and the average TMOM™ dose was 4.9 mg/kg (250-300 μL).

For data set [16] the following is noted: dogs. The procedure:
A six dog, two-way crossover experiment was carried out with a target dose of 6.0 mg/kg propofol administered by IV, and 30.0 mg/kg of propofol using transmucosal oral administration.

Data set [17] can be described thus: Zolpidem two-way crossover, tablet vs TMOM, canine. As to conditions: for absorption time and absorption half-life, TMOM vs tablet / peak plasma concentration (Cmax), TMOM vs tablet: dogs. The procedure:
(§1) A six animal (canine and feline) two-way crossover experiment was carried out in which the subjects were administered a zolpidem tablet or a transmucosal oral mist of a 2.5% zolpidem tartrate solution.
Canine subjects were administered tablets (average dose 0.55 mg/kg (0.40-0.63 mg/kg)) or a transmucosal oral mist (average dose 0.55 mg/kg (0.42-0.62 mg/kg)). The transmucosal oral mist administration used a spray volume of 200-250 μL in 2-3 pumps of the spray dispenser. By comparison, the average human dose is 0.08-0.17 mg/kg

Data set [18] is described as follows: Zolpidem two-way crossover, tablet vs TMOM, feline. The procedure:
as §1
Feline subjects were administered tablets (average dose 0.74 mg/kg) or a transmucosal oral mist (average dose 0.72 mg/kg). The transmucosal oral mist used a spray volume of 100 μL in 1 pump of the spray dispenser.

The nature of data set [19]: Milbemycin canine study, tablets vs TMOM. The data set is classed as in vivo, dog. As to conditions: dogs. The procedure:
A twelve dog random parallel design was carried out to compare conventional oral administration (i.e., tablets) of Milbemycin with transmucosal oral administration. The tablets used were Interceptor® Flavor Tab®, 5.75 mg and 11.5 mg, providing an average dose of 0.78 mg/kg (0.50-0.99 mg/kg).

The mark [20] stands for this setting: ~0.5 mg/kg, listed as zolpidem tartrate.

`C[C@H]1O[C@@H](O[C@H]2[C@@H](O)C[C@H](O[C@H]3[C@@H](O)C[C@H](O[C@H]4CC[C@@]5(C)[C@H](CC[C@@H]6[C@@H]5C[C@@H](O)[C@]5(C)[C@@H](C7=CC(=O)OC7)CC[C@]65O)C4)O[C@@H]3C)O[C@@H]2C)C[C@H](O)[C@@H]1O` [Digoxin, (3β,5β,12β)-3-[(O-2,6-dideoxy-β-D-ribo-hexopyranosyl-(1,4)-O-2,6-dideoxy-β-D-ribo-hexopyranosyl-(1,4)-O-2,6-dideoxy-β-D-ribo-hexopyranosyl)oxy]-12,14-dihydroxy-card-20(22)-enolide]: the solubility result in data set [1] (in chloroform) is given as “slightly soluble”; in data set [1] (in diluted (e.g., about 50%) alcohol) it was “slightly soluble”; in [1] (in ether) it was “practically insoluble”; in data set [1] (in pyridine), “freely soluble”; in data set [1] (in water), “practically insoluble”.

As for `Cc1cnc(NC(=O)C2=C(O)c3ccccc3S(=O)(=O)N2C)s1` [Meloxicam, 4-hydroxy-2-methyl-N-(5-methyl-2-thiazolyl)-2H-1,2-benzothiazine-3-carboxamide-1,1-dioxide], the “physical stability of the meloxicam solution” value in data set [2] is “greater with PVA than Polysorbate 80 or glycerin”. The “jugular plasma levels as compared to cephalic (systemic) levels” value in [3] (anesthetized dogs, at 30 min and 4 h) is “higher”. In data set [3] (dogs), the “part of the dose in an awake animal delivered transmucosally” value is on record as at most 90%. Also, the “dissolution of 1% meloxicam” value in [4] is “did not dissolve”; in [6] (80% water/15% EtOH/5% Poloxamer 188, 1 M NaOH added to pH of 10), “dissolve”; in data set [6] (80% water/15% EtOH/5% Poloxamer 188, acidified to pH of 7 with 0.2 M HCl), “precipitate”; in data set [6] (80% water/15% EtOH/5% Poloxamer 188, additional 1 M NaOH, pH to 8) it was “redissolved and remained in solution”; in data set [6] (80% water/15% EtOH/5% Poloxamer 188, pH of approximately 5.8), “did not dissolve completely”; in data set [6] (100% water, pH adjusted to 10.1) it was “redissolved”. In addition, the “dissolution of 1% meloxicam” value in [6] (100% water, pH then reduced to approximately 7.8) was “no further precipitation”. Moreover, in data set [5], the “bioequivalence to meloxicam administered via an oral suspension” value is reported as “bioequivalent”. In addition, the “pH needed for meloxicam to remain in solution” value in data set [6] is “greater than 8.0”. In data set [6], the “pH value of solution causing meloxicam precipitation” value is reported as “less than 8”. The “apparent pH at which a precipitate formed” value in data set [6] (1% meloxicam, 85:15 water:ethanol, initial apparent pH of 12 reduced by HCl) is listed as 7.7. Moreover, the “pH at which meloxicam precipitation was observed” value in data set [6] (1% meloxicam, 100% water, titrated with HCl (aq)) worked out at 7.2.

Take `CC(C(=O)O)c1ccc2c(c1)[nH]c1ccc(Cl)cc12` (stereo not shown) [carprofen]: in [7], the “Cmax and AUC values, caplet vs transmucosal oral administration” value was “very similar”; the “Cmax of the subcutaneous injection relative to caplet or transmucosal oral administration” value was “approximately half”; the “Tmax, transmucosal oral administration vs caplet” value is recorded as “shorter”; the “absorption and Tmax, subcutaneous injection vs caplet or TMOM” value was “slower absorption and greater time to peak concentrations”. The “absorption, transmucosal oral administration vs caplet” value in data set [7] was “slightly faster”. In addition, the lag time entry in [7] (transmucosal oral administration) is listed as “no lag time”. In addition, the “AUC values of the three administration methods” value in [7] (caplet, TMOM, subcutaneous injection) is reported as “all similar”. For the same molecule, the “plasma jugular levels as compared to cephalic levels” value in data set [8] (anesthetized dogs, at 30 min) is listed as “higher”. In data set [8] (dogs), the “AUC for anesthetized animals relative to awake animals” value was “approximately 25%”.

For `CN1CCC[C@@H]1CCO[C@](C)(c1ccccc1)c1ccc(Cl)cc1` [clemastine], the “Tmax, transmucosal oral vs oral gavage of tablets” value in [9] (0.1 mg/kg) is listed as “shorter”. In data set [9] (0.1 mg/kg), the “bioavailability, transmucosal oral vs oral gavage of tablets” value is listed as “significantly better”. For the same molecule, the “bioavailability of clemastine in tablet form” value in data set [9] (oral gavage) is “extremely poor”. Also, the salivation entry in [10] (canine subjects) is on record as “none to moderate” and the salivation entry (feline subjects) was “mild to severe”. For the same molecule, the “peak (Cmax), transmucosal oral vs tablet” value in [10] (canine, ~1 mg/kg) was “much higher”. In [10] (dogs, 1 mg/kg), the “AUC and Cmax, TMOM route vs oral tablet route” value was “about an order of magnitude greater”. The t1/2 in data set [11] was 2.9 h. The absorption entry (cats) is reported as “well absorbed”. In addition, the “AUC values, transmucosal oral vs tablet” value (feline, ~1 mg/kg, appears to be an artifact of salivation) is listed as “Lower”. In addition, in data set [12], the “absorption via the transmucosal route” value is “readily absorbed”. Moreover, the Tmax in “in vivo [13]” was around 0.167 h. Moreover, the half-life in “in vivo [14]” was 2.8 h.

For the molecule `CCN1CCN(c2cc3c(cc2F)c(=O)c(C(=O)O)cn3C2CC2)CC1` [enrofloxacin], in [15] (TMOM), the “lag time in uptake” value is given as “no lag time”. Moreover, in [15] (TMOM, 5 min time point), the “jugular plasma concentrations as compared to cephalic concentrations” value is “Consistently and significantly higher”. The “AUC, Cmax, Tmax or t1/2 values, transmucosal vs conventional administration” value in [15] (~5 mg/kg) was “essentially no difference”.

For `CC(C)c1cccc(C(C)C)c1O` [propofol], the “uptake using transmucosal oral administration” value in data set [16] is “rapid”. Moreover, the “Cmax value compared to IV administration” value in data set [16] (TMOM ~30 mg/kg vs IV ~6 mg/kg) is “somewhat lower”. For the same molecule, the “part of transmucosally administered dose absorbed” value in [16] (TMOM ~30 mg/kg, by 2 hours) is “Greater than 90%”.

`Cc1ccc(-c2nc3ccc(C)cn3c2CC(=O)N(C)C)cc1` [zolpidem, N,N-6-trimethyl-2-p-tolyl-imidazo[1,2-a]pyridine-3-acetamide]: in [17] (canine, 12 minutes after administration), the “vomiting after TMOM administration” value is on record as “One of the canine subjects vomited”. Further, the “time within which substantially all of the dose was absorbed” value in data set [17] (canine, TMOM) is at most 12 min. In data set [17] (canine, ~0.5 mg/kg), the “AUC, TMOM vs tablet” value is given as “greater” and the “Tmax, TMOM vs tablet” value is on record as “shorter”. In data set [17] (~0.5 mg/kg), the “absorption time and absorption half-life, TMOM vs tablet” value is reported as “shorter”; the “peak plasma concentration (Cmax), TMOM vs tablet” value was “greater”. Also, in [17] (setting [20]), the “absorption time and absorption half-life, TMOM vs tablet” value is “significantly lower (shorter)”; the “peak plasma concentration (Cmax), TMOM vs tablet” value is recorded as “higher”. Also, the “absorption time, peak plasma concentration, and total absorption, TMOM vs tablet” value in [18] (cats, within experimental error) is “comparable”. Also, the “AUC, TMOM vs tablet” value in data set [18] (feline, salivation can lead to reduced absorption) is on record as “lower”.

Take Milbemycin: the “variability of plasma concentrations, transmucosal vs tablet” value in data set [19] is recorded as “less variable”. In [19] (0.28 mg/kg), the “uptake by transmucosal oral administration” value is recorded as “very good”. For the same molecule, the “bioavailability, transmucosal oral administration vs conventional tablet” value in data set [19] (corrected for dosage) was “similar”.
